15 compounds from ChEMBL document CHEMBL6182865, “Discovery of potent free fatty acid receptor 1 full agonists with a novel scaffold bearing conjugated double bond linker” (Bioorg Med Chem, 2025) can be followed below.

The source made the active and inactive calls. No cut-off for these calls is given here. Bounds are passed on as bounds.

The EC50 is the concentration needed to bring the measured effect to its halfway point. By Emax is commonly meant the greatest response seen or fitted, relative to the assay's reference.

Experiment [1] addresses T1, Free fatty acid receptor 1 (Homo sapiens, UniProt O14842). The experiment is described as follows: Agonist activity at GPR40 (unknown origin) expressed in HEK293 cells assessed as intracellular inositol phosphate accumulation incubated for 30 mins by IP-one HTRF analysis. Type of experiment: functional, cell-based. In general terms: In TR-FRET formats the signal depends on donor and acceptor labels being close together.

Experiment [2] deals with Mus musculus. The experiment is described as follows: Hypoglycemic effect in male po dosed C57BL/6 mouse preadministered with compound for 60 mins followed by glucose administration at 0 hrs and measured up to 90 mins by oral glucose tolerance test. Type of experiment: functional, organism-based. The following applies: dose 3-30 mg/kg, time <= 150.0 min.
The subject of experiment [3] is Mus musculus. The experiment is described as follows: Hypoglycemic effect in male C57BL/6 mouse assessed as reduction in blood glucose level at 10 mg/kg, po preadministered with compound for 60 mins followed by glucose administration at 0 hrs and measured up to 90 mins by oral glucose tolerance test. The format is functional, organism-based. The note with it: time <= […] min.

Experiment [4] deals with Mus musculus. The experiment is described as follows: Hypoglycemic effect in male C57BL/6 mouse assessed as reduction in blood glucose level at 30 mg/kg, po preadministered with compound for 60 mins followed by glucose administration at 0 hrs and measured up to 90 mins by oral glucose tolerance test. Type of experiment: functional, organism-based. The following applies: time <= 150.0 min.

Experiment [5] addresses T1, Free fatty acid receptor 1. The experiment is described as follows: Agonist activity at GPR40 (unknown origin) expressed in HEK293 cells assessed as intracellular cAMP level incubated for 30 mins by LANCE Ultra cAMP kit based multiplate reader analysis. Type of experiment: functional, cell-based.
Experiment [6] concerns Mus musculus. The experiment is described as follows: Hypoglycemic effect in male C57BL/6 mouse assessed as reduction in blood glucose level at 3 mg/kg, po preadministered with compound for 60 mins followed by glucose administration at 0 hrs and measured up to 90 mins by oral glucose tolerance test. The format is functional, organism-based. The note with it: time <= 150.0 min.

In experiment [7] the target is T1, Free fatty acid receptor 1. The experiment is described as follows: Partial agonist activity at GPR40 (unknown origin) expressed in HEK293 cells assessed as intracellular inositol phosphate accumulation by measuring maximum efficacy incubated for 30 mins by IP-one HTRF analysis relative to control. The format is functional, cell-based. The note with it: filed as partial agonist.

T1 sequence (O14842 whole entry): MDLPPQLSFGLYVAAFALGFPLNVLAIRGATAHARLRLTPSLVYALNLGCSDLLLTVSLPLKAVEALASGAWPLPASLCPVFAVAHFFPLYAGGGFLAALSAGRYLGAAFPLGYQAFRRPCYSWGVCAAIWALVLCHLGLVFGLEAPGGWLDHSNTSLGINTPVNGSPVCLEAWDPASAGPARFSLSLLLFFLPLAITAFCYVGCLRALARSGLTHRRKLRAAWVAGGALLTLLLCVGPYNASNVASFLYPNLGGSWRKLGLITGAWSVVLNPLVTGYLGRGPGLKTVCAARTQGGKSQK

Consider `COc1ccc(OCCC(C)(C)C)c(/C=C(C)/C=C/COc2cccc([C@H](C3CC3)[C@@](C)(F)C(=O)O)c2)c1`, for which the results for the concentration giving a half-maximal response (EC50) in experiment [1] and in experiment [5] were 3.23 nM and 261 nM, respectively. Further, the Activity result with Mus musculus [2] is “Dose-dependent-effect”; in the experiment on Mus musculus [4], “Active; Compound Showed Better Effect Compared With Standard Drug(Sco-267)”. Also, in the experiment on Mus musculus [3], the outcome was Active.

For the compound `COc1cc(/C=C(C)/C=C/COc2cccc(C(CC(=O)O)C3CC3)c2)cc(OCCC(C)(C)C)c1` (stereo not drawn), the concentration giving a half-maximal response (EC50) in experiment [1] was 943 nM; in experiment [5], above 10000 nM.

Consider `CCCOc1ccc(OC)cc1/C=C(C)/C=C/COc1cccc(C(CC(=O)O)C2CC2)c1` (stereo not drawn), for which the values for the EC50 in experiment [1] and in experiment [5] were 364 nM and above 10000 nM, respectively.

Turning to `COc1ccc(F)c(CCCCCCOc2cccc(C(CC(=O)O)C3CC3)c2)c1` (stereo not drawn), the half-maximal effective concentration (EC50) in experiment [1] and in experiment [5] was above 10000 nM throughout.

As for `COc1ccc(F)c(/C=C/C=C/COc2cccc(C(CC(=O)O)C3CC3)c2)c1` (stereo not drawn), the EC50 in experiment [1] was 1770 nM; in experiment [5] it was above 10000 nM.

Turning to `COc1ccc(C(=O)N(CC(C)(C)C)c2cccc(C)n2)c(N2CCC(COc3cc([C@@H](CC(=O)O)C4CC4)ccn3)CC2)c1`, the results for the EC50 in experiment [1] and in experiment [5] were 1.11 nM and 87.9 nM, respectively. The outcome in the experiment on Mus musculus [6] was Active.

With `COc1ccc(F)c(CCCOc2cccc(C(CC(=O)O)C3CC3)c2)c1` (stereo not drawn), the EC50 in experiment [1] and in experiment [5] was above 10000 nM in each case.

With `COc1ccc(OCC2CC2)c(/C=C(C)/C=C/COc2cccc(C(CC(=O)O)C3CC3)c2)c1` (stereo not drawn), the figures for the EC50 in experiment [1] and in experiment [5] were 367 nM and above 10000 nM, respectively.

Consider `COc1cc(/C=C(C)/C=C/COc2cccc(C(CC(=O)O)C3CC3)c2)cc(OCc2ccc(Cl)cc2F)c1` (stereo not drawn), for which the EC50 is 1360 nM in experiment [1] and above 10000 nM in experiment [5].

In the case of `COc1ccc(OCCC(C)(C)C)c(/C=C(C)/C=C/COc2cccc([C@H](C3CC3)[C@](C)(F)C(=O)O)c2)c1`, the EC50 in experiment [1] was 1050 nM; in experiment [5] it was above 10000 nM.

For `COc1ccc(OCCCC(C)C)c(/C=C(C)/C=C/COc2cccc(C(CC(=O)O)C3CC3)c2)c1` (stereo not drawn), the concentration giving a half-maximal response (EC50) was 134 nM in experiment [1] and 6870 nM in experiment [5].

Consider `COc1ccc(F)c(CCCCOc2cccc(C(CC(=O)O)C3CC3)c2)c1` (stereo not drawn), for which the EC50 in experiment [1] is 6700 nM; in experiment [5] it was above 10000 nM.

Regarding `COc1ccc(OC)c(/C=C(C)/C=C/COc2cccc(C(CC(=O)O)C3CC3)c2)c1` (stereo not drawn), the results for the EC50 in experiment [1] and in experiment [5] were 894 nM and above 10000 nM, respectively.

As for `COc1ccc(OCc2ccccc2)c(/C=C(C)/C=C/COc2cccc(C(CC(=O)O)C3CC3)c2)c1` (stereo not drawn), the figures for the EC50 in experiment [1] and in experiment [5] were 204 nM and above 10000 nM, respectively.

With `Cc1cc(OCCCS(C)(=O)=O)cc(C)c1-c1cccc(COc2ccc3c(c2)OC[C@H]3CC(=O)O)c1`, the Emax in experiment [7] is 77.8%.
